Numbered stars: 1 amine (or outer) side, 2 acyl side, 3 side chain; on linkers, the order of the positions; unused ones are H or OH. Bridge positions count the residues as written; N and C are the ends. Square brackets hold non-standard residues; d marks the D form. Side chains are listed from the residue outwards. Peptide text beside a SMILES is read from it. * marks the point of attachment. C18 diacid = O=C(O)CCCCCCCCCCCCCCCCC(=O)*; γGlu = O=C(O)[C@H](CCC(=O)[*:2])N[*:1]; Aib = CC(C)(N)C(=O)O
Columns and labels:
[1] = biological target: T1, human calcitonin receptor (hCTR) (Homo sapiens, UniProt P30988); experiment: cAMP production in 1321N1 cells with stable recombinant expression of human calcitonin receptor (hCTR); assay type: cell-based; details: cAMP, 1321N1 cells, assay buffer with 0.1% BSA; read-out: EC50 (pM) hCTR
T1 construct: expressed in transfected cells
T1 sequence (P30988 25-474): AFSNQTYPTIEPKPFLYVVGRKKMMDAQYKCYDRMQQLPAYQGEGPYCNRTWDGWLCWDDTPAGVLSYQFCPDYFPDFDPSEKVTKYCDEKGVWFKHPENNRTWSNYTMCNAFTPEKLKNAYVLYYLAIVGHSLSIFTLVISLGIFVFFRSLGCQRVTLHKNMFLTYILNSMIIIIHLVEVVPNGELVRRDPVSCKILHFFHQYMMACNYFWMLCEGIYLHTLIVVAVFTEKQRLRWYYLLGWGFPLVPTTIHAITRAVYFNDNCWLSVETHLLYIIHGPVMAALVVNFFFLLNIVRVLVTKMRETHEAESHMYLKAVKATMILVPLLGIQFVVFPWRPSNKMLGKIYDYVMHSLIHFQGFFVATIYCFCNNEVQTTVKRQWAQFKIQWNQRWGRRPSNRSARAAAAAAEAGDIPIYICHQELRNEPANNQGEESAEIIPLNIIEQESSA
Method in brief: (§1)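 Receptor-expressing cells (human receptors in 1321N1, rat receptors in HEK) incubated 30 min at room temperature with peptide in HBSS/HEPES pH 7.4, 0.1% BSA, 0.5 mM IBMX. cAMP read by HTRF; EC50 from 4-parameter fit as % of maximal amylin or calcitonin response.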

[2] = biological target: T2, human amylin receptor (calcitonin receptor co-expressed with receptor activity modifying protein, RAMP3) (hAMYR3) (Homo sapiens, UniProt O60896+P30988); experiment: cAMP production in 1321N1 cells with stable recombinant expression of human amylin receptor (hAMYR3); assay type: cell-based; details: for Ratio (selectivity hAMYR vs hCTR, ratio of EC50 values at the two receptors): EC50 hCTR / EC50 hAMYR3; for EC50: cAMP, 1321N1 cells, assay buffer with 0.1% BSA, read-out: EC50 (pM) hAMYR3
T2 construct: expressed in transfected cells
T2 sequence (P30988 25-474): T1 sequence (P30988 25-474)
T2 sequence (O60896 24-148 partner): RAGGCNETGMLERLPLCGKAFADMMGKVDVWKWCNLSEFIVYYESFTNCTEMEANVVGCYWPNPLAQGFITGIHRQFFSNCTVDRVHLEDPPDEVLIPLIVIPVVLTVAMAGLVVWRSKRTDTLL
Method in brief: as §1

| EC50 [1] [pM] | Ratio (selectivity hAMYR vs hCTR, ratio of EC50 values at the two receptors) [2] | EC50 [2] [pM] | Structure (SMILES) |
| --- | --- | --- | --- |
| 859 | 2 | 556 | CC[C@H](C)[C@H](NC(=O)[C@@H]1CCCN1C(=O)CNC(=O)[C@H](Cc1ccccc1)NC(=O)[C@H](CC(N)=O)NC(=O)[C@H](CC(N)=O)NC(=O)[C@H](CO)NC(=O)[C@H](CO)NC(=O)[C@H](Cc1c[nH]cn1)NC(=O)C(C)(C)NC(=O)[C@H](CC(C)C)NC(=O)[C@H](Cc1ccccc1)NC(=O)[C@H](CC(N)=O)NC(=O)[C@H](C)NC(=O)[C@H](CC(C)C)NC(=O)[C@H](CCCNC(=N)N)NC(=O)[C@H](CCC(N)=O)NC(=O)[C@@H](NC(=O)[C@H](C)NC(=O)[C@@H]1CSSC[C@H](NC(=O)[C@H](CCCCN)NC(=O)[C@@H](N)CCCCNC(=O)CC[C@H](NC(=O)CCCCCCCCCCCCCCCCC(=O)O)C(=O)O)C(=O)N[C@@H](CC(N)=O)C(=O)N[C@@H]([C@@H](C)O)C(=O)N[C@@H](C)C(=O)N[C@@H]([C@@H](C)O)C(=O)N1)[C@@H](C)O)C(=O)N[C@@H](CC(C)C)C(=O)NC(C)(C)C(=O)N1CCC[C@H]1C(=O)N[C@H](C(=O)N[C@@H](CC(N)=O)C(=O)N[C@H](C(=O)NCC(=O)N[C@@H](CO)C(=O)N[C@@H](CC(N)=O)C(=O)N[C@H](C(=O)N[C@@H](Cc1ccc(O)cc1)C(N)=O)[C@@H](C)O)C(C)C)[C@@H](C)O [Peptide 96, K(γE-C18diacid)K[CNTATC]ATQRLANFL(Aib)HSSNNFGPIL(Aib)PTNVGSNTY-amide] (H-K([γGlu-C18 diacid])KCNTATCATQRLANFL[Aib]HSSNNFGPIL[Aib]PTNVGSNTY-NH2; disulfide 3-8; N-terminus assumed) |
| 944 | 1 | 684 | CC[C@H](C)[C@H](NC(=O)[C@@H]1CCCN1C(=O)CNC(=O)[C@H](Cc1ccccc1)NC(=O)[C@H](CC(N)=O)NC(=O)[C@H](CC(N)=O)NC(=O)[C@H](CO)NC(=O)[C@H](CO)NC(=O)[C@H](Cc1c[nH]cn1)NC(=O)C(C)(C)NC(=O)[C@H](CC(C)C)NC(=O)[C@H](Cc1ccccc1)NC(=O)[C@H](CC(N)=O)NC(=O)[C@H](C)NC(=O)[C@H](CC(C)C)NC(=O)[C@H](CCCNC(=N)N)NC(=O)[C@H](CCC(N)=O)NC(=O)[C@@H](NC(=O)[C@H](C)NC(=O)[C@@H]1CSSC[C@H](NC(=O)[C@H](CCCCN)NC(=O)[C@@H](N)CCCCNC(=O)CC[C@H](NC(=O)CCCCCCCCCCCCCCCCC(=O)O)C(=O)O)C(=O)N[C@@H](CC(N)=O)C(=O)N[C@@H]([C@@H](C)O)C(=O)N[C@@H](C)C(=O)N[C@@H]([C@@H](C)O)C(=O)N1)[C@@H](C)O)C(=O)N[C@@H](CC(C)C)C(=O)N1CCC[C@H]1C(=O)NC(C)(C)C(=O)N[C@H](C(=O)N[C@@H](CC(N)=O)C(=O)N[C@H](C(=O)NCC(=O)N[C@@H](CO)C(=O)N[C@@H](CC(N)=O)C(=O)N[C@H](C(=O)N[C@@H](Cc1ccc(O)cc1)C(N)=O)[C@@H](C)O)C(C)C)[C@@H](C)O [Peptide 97, K(γE-C18diacid)K[CNTATC]ATQRLANFL(Aib)HSSNNFGPILP(Aib)TNVGSNTY-amide] (H-K([γGlu-C18 diacid])KCNTATCATQRLANFL[Aib]HSSNNFGPILP[Aib]TNVGSNTY-NH2; disulfide 3-8; N-terminus assumed) |

From patent US20240067693A1, “POLYPEPTIDES AND USES THEREOF” (MEDIMMUNE LIMITED, priority 2020, published 2024)
